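Interpolation was linear, between the two tested concentrations surrounding the appropriate level; five concentrations were tested over 48 hours in 96-well plates. Abbreviation: GI50, concentration required for 50% inhibition of growth.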 The source made the active and inactive calls. Rule as the data show it: active = GI50 up to about 1.1 µM and inactive = higher.
Key:
Experiment in all cases: inhibition of tumour cell growth, NCI panel, 48 h
[1] = tested on: K562
[2] = tested on: EKVX
[3] = tested on: HOP-62
[4] = tested on: SF-295
[5] = tested on: TK-10
[6] = tested on: RXF 393
[7] = tested on: MOLT-4
[8] = tested on: LXFL 529
[9] = tested on: OVCAR-4
[10] = tested on: HCT-116
[11] = tested on: NCI-H522
[12] = tested on: ACHN
[13] = tested on: SK-MEL-5
[14] = tested on: UACC-257
[15] = tested on: SK-OV-3
[16] = tested on: A498
[17] = tested on: HCC 2998
[18] = tested on: BT-549
[19] = tested on: NCI/ADR-RES
[20] = tested on: MDA-MB-435

Measured: GI50

C=CCNC(=S)N1c2ccccc2NC(=O)CC1C (stereo unspecified)
inactive: [1] > 100 µM | [2] > 100 µM | [3] > 100 µM | [4] > 100 µM | [5] > 100 µM | [6] > 100 µM | [7] > 100 µM | [8] > 100 µM | [9] > 100 µM | [10] > 100 µM | [11] > 100 µM | [12] > 100 µM | [13] > 100 µM

CC(C)c1cccc(C(C)C)c1NC(=O)C(=O)C1SC(=S)NC1=O (stereo unspecified)
inactive: [1] > 100 µM | [2] > 100 µM | [3] > 100 µM | [4] > 100 µM | [5] > 100 µM | [6] > 100 µM | [7] > 100 µM | [8] > 100 µM | [9] > 100 µM | [10] > 100 µM | [14] > 100 µM | [11] > 100 µM | [15] > 100 µM | [12] > 100 µM | [16] > 100 µM | [13] > 100 µM

O=c1oc2c3ccc4ccccc4c3n(CCN3CCCCC3)c2c2ccccc12
inactive: [1] 15.1 µM | [2] > 87.5 µM | [3] 21.3 µM | [4] 16.8 µM | [5] 37.2 µM | [6] 14.8 µM | [7] 2.46 µM | [8] 43.9 µM | [17] 80.5 µM | [9] 23.8 µM | [10] 31.8 µM | [14] > 62.5 µM | [11] 17.9 µM | [15] 43.1 µM | [12] 31.6 µM | [13] 40.7 µM

O=c1cccccc1NCCCCCCCNc1cccccc1=O
inactive: [1] 17.8 µM | [2] 20.4 µM | [3] > 100 µM | [4] 34 µM | [6] 7.74 µM | [7] 17 µM | [8] 16.9 µM | [9] 27 µM | [10] 37.2 µM | [14] 16.4 µM | [11] 13.8 µM | [15] 42.6 µM | [12] 26.7 µM

O=C(O)CCN(CCC(=O)O)c1ccc(/C=C2\SC(=S)NC2=O)cc1
inactive: [1] > 100 µM | [2] > 100 µM | [3] > 100 µM | [4] > 100 µM | [5] > 100 µM | [18] > 100 µM | [6] > 100 µM | [7] > 100 µM | [17] > 100 µM | [9] > 100 µM | [10] > 100 µM | [14] > 100 µM | [11] 91.6 µM | [15] > 100 µM | [19] > 100 µM | [12] > 100 µM | [16] > 100 µM | [20] > 100 µM | [13] > 100 µM

Oc1ccc(SCc2cc(O)ccc2O)cc1
inactive: [1] 3.96 µM | [2] 18.9 µM | [3] 14.8 µM | [4] 15.6 µM | [5] 18.4 µM | [18] 3.81 µM | [6] 11.9 µM | [7] 3.86 µM | [17] 22.8 µM | [9] 5.5 µM | [10] 11.2 µM | [14] 13.9 µM | [11] 1.79 µM | [15] 30.2 µM | [19] 14.4 µM | [12] 13.7 µM | [16] 34 µM | [20] 13.1 µM | [13] 10 µM

C[C@@H]1[C@@H](C)C(c2ccccc2)O[Si]1(C(C)(C)C)C(C)(C)C (stereo partly specified)
inactive: [1] 22.3 µM | [2] 17.1 µM | [3] 17.5 µM | [4] 16.6 µM | [5] 16.4 µM | [18] 24.4 µM | [6] 17.1 µM | [7] 16 µM | [17] 19.8 µM | [9] 37.8 µM | [10] 15.5 µM | [14] 17.1 µM | [11] 15.1 µM | [15] 26.5 µM | [19] 18.1 µM | [12] 17.7 µM | [16] 16.6 µM | [20] 25.6 µM | [13] 17.4 µM

Cc1c(Cl)cccc1NC(=O)CC1C(=O)Nc2ccccc2S1(=O)=O (stereo unspecified)
inactive: [1] 5.5 µM | [2] 25.6 µM | [4] 19.7 µM | [5] 25.8 µM | [6] 14.7 µM | [7] 7.83 µM | [8] 15.3 µM | [17] 16.7 µM | [9] 20.5 µM | [10] 15.8 µM | [14] 24 µM | [12] 16.5 µM | [16] 15.3 µM | [13] 12.2 µM

N=C(N)N/N=C(/CCN1CCCC1)CC(c1ccccc1)c1c(O)c2ccccc2oc1=O (stereo unspecified)
inactive: [1] > 100 µM | [2] > 100 µM | [3] > 100 µM | [4] > 100 µM | [5] > 100 µM | [6] > 100 µM | [8] > 100 µM | [17] > 100 µM | [9] > 100 µM | [10] > 100 µM | [14] > 100 µM | [11] > 100 µM | [15] > 100 µM | [12] > 100 µM

CCOC(=O)c1c(N2CCCC2)ncn(-c2ccccc2)c1=S
inactive: [1] > 100 µM | [2] > 100 µM | [3] > 100 µM | [4] > 100 µM | [5] > 100 µM | [18] > 100 µM | [6] > 100 µM | [7] > 100 µM | [17] > 100 µM | [9] > 100 µM | [10] > 100 µM | [14] > 100 µM | [11] > 100 µM | [15] > 100 µM | [19] > 100 µM | [12] > 100 µM | [16] > 100 µM | [20] > 100 µM | [13] > 100 µM

Cc1cc(S(=O)(=O)Nc2nnc3c(Cl)cc(C(F)(F)F)cn23)c(S)cc1Cl
inactive: [1] 66.2 µM | [2] 75 µM | [3] 54.5 µM | [4] 71.8 µM | [5] > 100 µM | [18] 25.9 µM | [6] > 100 µM | [7] 75.9 µM | [17] 44.8 µM | [9] 66.5 µM | [10] 34.8 µM | [14] > 100 µM | [11] 63.5 µM | [15] 44.9 µM | [19] > 80.4 µM | [12] > 76.7 µM | [16] > 100 µM | [20] 45.5 µM | [13] 22.8 µM

COC(=O)[C@H](C)NC(=O)C1(CNC(=O)[C@H](C)NC(=O)OC(C)(C)C)Cc2ccccc2-c2ccccc2C1
inactive: [1] 24.7 µM | [2] 19.3 µM | [3] 27 µM | [4] 21.4 µM | [5] 27 µM | [18] > 43.6 µM | [6] 25.5 µM | [7] 16.7 µM | [17] 24.9 µM | [9] 21 µM | [10] 33.8 µM | [14] > 48.2 µM | [11] 7.52 µM | [15] 30.5 µM | [19] 17.5 µM | [12] 22.8 µM | [16] 35.7 µM | [20] 20 µM | [13] 23.3 µM

CC1(C)S[C@@H]2[C@H](NC(=O)C3(N)CCCCC3)C(=O)N2[C@H]1C(=O)O [CYCLACILLIN]
inactive: [1] > 100 µM | [2] > 100 µM | [3] > 100 µM | [4] > 100 µM | [5] > 100 µM | [18] > 100 µM | [6] > 100 µM | [7] > 100 µM | [17] > 100 µM | [9] > 100 µM | [10] > 100 µM | [14] > 100 µM | [11] > 100 µM | [15] > 100 µM | [19] > 100 µM | [12] > 100 µM | [16] > 100 µM | [20] > 100 µM | [13] > 100 µM

Nn1c(Sc2nc3ccccc3c(=O)n2N)nc2ccccc2c1=O
inactive: [1] 2.12 µM | [2] 17.5 µM | [3] 16.6 µM | [4] 18.2 µM | [5] 21.2 µM | [18] 1.77 µM | [6] 7.85 µM | [7] 1.63 µM | [17] 15.2 µM | [9] 26.7 µM | [10] 2.99 µM | [14] 16.5 µM | [11] 1.69 µM | [15] 20.4 µM | [19] 7.76 µM | [12] 8.95 µM | [16] 16 µM | [20] 6.22 µM | [13] 3.96 µM

CCOC(=O)c1nc2cc(N3CCOCC3)c(F)cc2[nH]c1=O
inactive: [1] > 100 µM | [2] 4.67 µM | [3] 57.5 µM | [4] 83.4 µM | [5] > 100 µM | [18] > 100 µM | [6] > 100 µM | [7] > 100 µM | [17] > 100 µM | [9] > 100 µM | [10] > 100 µM | [14] > 100 µM | [11] 67.9 µM | [15] > 100 µM | [19] > 100 µM | [12] > 100 µM | [16] > 100 µM | [20] > 100 µM | [13] > 100 µM

COc1ccc(/C=C(\C#N)c2nc(N)nc(N3N=C(C)CC3(C)C)n2)c(O)c1
inactive: [1] 21.3 µM | [2] 20.5 µM | [3] 24.1 µM | [4] 19.1 µM | [5] 30.2 µM | [18] 34 µM | [6] 16.1 µM | [7] 13.1 µM | [17] 19.2 µM | [9] 15.8 µM | [10] 17.6 µM | [14] 24 µM | [11] 21.7 µM | [15] 26.9 µM | [19] 31 µM | [12] 17.1 µM | [16] 28.4 µM | [20] 16.9 µM | [13] 15.2 µM

— ChEMBL document CHEMBL1201862, “PubChem BioAssay data set” (2004)
